From patent publication US20160220557A1, “USE OF ACETYL-COA CARBOXYLASE INHIBITORS FOR TREATING ACNE VULGARIS” (PFIZER INC., priority 2013, published 2016) come the findings set out here.

The target of data set [1] is T1, CYP2C9 (Homo sapiens, UniProt P11712).
T1 construct: from tissue; host or cells: liver microsomes
Kind of data set: P450 inhibition in liver microsomes with probe substrates. It is filed as in vitro ADME.

Data set [2] deals with CYP3A (Homo sapiens, UniProt P08684). The experiment in a line: in vitro. The note with it: microsomes.
For data set [3], the target named is T2, CYP2C19 (Homo sapiens, UniProt P33261).
T2 construct: from tissue; host or cells: liver microsomes
Kind of data set: P450 inhibition in liver microsomes with probe substrates. It is filed as in vitro ADME.

For data set [4], the target named is T3, CYP2D6 (Homo sapiens, UniProt P10635).
T3 construct: from tissue; host or cells: liver microsomes
The description is as above. It is filed as in vitro ADME.

Data set [5] concerns the target T4, CYP2B6 (Homo sapiens, UniProt P20813).
T4 construct: from tissue; host or cells: liver microsomes
T4 sequence (P20813 1-491): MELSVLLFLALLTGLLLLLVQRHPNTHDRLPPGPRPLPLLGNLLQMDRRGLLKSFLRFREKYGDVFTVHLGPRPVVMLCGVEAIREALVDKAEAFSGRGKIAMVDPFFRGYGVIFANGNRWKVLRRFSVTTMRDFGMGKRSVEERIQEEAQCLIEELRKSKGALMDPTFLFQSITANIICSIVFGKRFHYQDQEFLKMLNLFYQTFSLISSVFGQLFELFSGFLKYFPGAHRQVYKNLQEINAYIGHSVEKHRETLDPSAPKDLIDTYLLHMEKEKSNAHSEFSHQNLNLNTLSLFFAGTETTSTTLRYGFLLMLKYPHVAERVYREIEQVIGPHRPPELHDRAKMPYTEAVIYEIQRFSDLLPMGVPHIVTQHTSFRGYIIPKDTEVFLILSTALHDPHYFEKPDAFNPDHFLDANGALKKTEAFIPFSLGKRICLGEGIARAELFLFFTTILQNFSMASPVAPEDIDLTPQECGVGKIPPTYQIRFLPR
Described as above. It is filed as in vitro ADME.

Data set [6] in a line: clinical. To be noted: human, in vivo, po.
Data set [7] deals with de novo lipogenesis in ear skin and liver. The experiment in a line: Effect of oral and topical ACCi on DNL (14C-acetate incorporation) in Syrian hamsters. The note with it: topical 100 mg/ml single dose, vs. vehicle. It is filed as in vivo, Syrian hamster. On the procedure: Male Syrian gold Hamster at ˜10 weeks were maintained adlibitum on standard hamster chow and water. […] Example 3 for topical delivery was prepared as a solution in a vehicle consisting of 70:30 (Ethanol:propylene glycol) at a concentration of 100 mg/ml. Topical administration of a single dose (5 ul/ear) was applied to hamster ears with a pipette (2-10 ul) tip adhering to 2 minute intervals following the dosing order. The dosing timing allowed for the formulation to spread evenly over an approximate 1 sq cm area and absorb/dry prior to returning the animal to the cage. 1 hour post ACCi dose each animal received an IP injection of ^14C-labeled acetate (ARC0158B diluted in saline) following the 2 minute interval timing format. Each animal received an individually calculated amount of ^14C-acetate based on body weight (0.1 μCi/g in a dosing volume of 2 μl/g). One hour after the ^14C-Acetate injection animals were sacrificed by CO2 asphyxiation.
Liver and ear skin were collected for de novo lipogenesis determinations (^14C incorporation to lipid). Briefly, 2 liver punches totaling ˜400 mg of liver were collected from the bifurcated median lobe of each animal (using a 8 mm diameter Sklar Tru-punch—Sklar Instruments), rinsed with saline and blotted dry. The tissues were placed into pre-weighed in glass tubes (Pyrex 9826-16×125 mm with PTFE lined caps) containing NaOH (1.5 mL of 2.5 M).
Ear skin samples were prepared for analysis in the following manner. One 8 mm distal biopsy punch (using an 8 mm diameter Sklar Tru-punch—Sklar Instruments) (2 per animal) was taken just above the anatomical “V” in the aural cartilage to standardize sample collection area. The punch was then split into 2 layers (anterior and posterior). The anterior (front) surface is retained for analysis. The anterior skin was placed into pre-weighed in glass tubes (Pyrex 9826-16×125 mm with PTFE lined caps) containing NaOH (1.5 mL of 2.5 M).
Upon completion of the study, the liver and ear skin samples in NaOH were weighed and this weight was used to calculate the mass of the tissue collected. The capped tubes were heated in an dry oven (˜60° C.) until the tissue was fully degraded (˜4-6 hr, gentle vortexing 2-3 times during heating). Following degradation and cooling absolute ethanol (2.5 mL) was added to each sample. The tubes were recapped and vigorously mixed (vortexed) for 60 seconds and allowed to settle overnight at RT. Petroleum ether (4.8 mL) was added to each tube, recapped and the samples were vigorous mixed (60 sec). […] Aquasol-2 scintillation fluid (10 mL) (or other compatible scintillation fluid) was added to each vial and after vortexing the samples were counted in an appropriate scintillation counter (e g. Wallac Rack-Beta 1409 LSC). […]

Bounds are passed on as bounds.

T2 sequence (P33261 whole entry): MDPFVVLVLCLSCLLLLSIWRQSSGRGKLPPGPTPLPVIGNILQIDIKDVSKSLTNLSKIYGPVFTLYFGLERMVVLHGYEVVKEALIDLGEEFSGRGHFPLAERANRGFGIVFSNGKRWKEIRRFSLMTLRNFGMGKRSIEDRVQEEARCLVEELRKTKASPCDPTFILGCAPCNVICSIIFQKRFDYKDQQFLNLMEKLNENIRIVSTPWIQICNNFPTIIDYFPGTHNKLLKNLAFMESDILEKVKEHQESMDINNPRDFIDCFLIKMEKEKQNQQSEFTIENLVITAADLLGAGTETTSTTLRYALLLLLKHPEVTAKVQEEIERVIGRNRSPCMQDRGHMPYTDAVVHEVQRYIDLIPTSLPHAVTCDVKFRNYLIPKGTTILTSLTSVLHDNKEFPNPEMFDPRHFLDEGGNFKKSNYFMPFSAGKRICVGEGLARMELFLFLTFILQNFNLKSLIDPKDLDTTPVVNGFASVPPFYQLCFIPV
T1 sequence (P11712 whole entry): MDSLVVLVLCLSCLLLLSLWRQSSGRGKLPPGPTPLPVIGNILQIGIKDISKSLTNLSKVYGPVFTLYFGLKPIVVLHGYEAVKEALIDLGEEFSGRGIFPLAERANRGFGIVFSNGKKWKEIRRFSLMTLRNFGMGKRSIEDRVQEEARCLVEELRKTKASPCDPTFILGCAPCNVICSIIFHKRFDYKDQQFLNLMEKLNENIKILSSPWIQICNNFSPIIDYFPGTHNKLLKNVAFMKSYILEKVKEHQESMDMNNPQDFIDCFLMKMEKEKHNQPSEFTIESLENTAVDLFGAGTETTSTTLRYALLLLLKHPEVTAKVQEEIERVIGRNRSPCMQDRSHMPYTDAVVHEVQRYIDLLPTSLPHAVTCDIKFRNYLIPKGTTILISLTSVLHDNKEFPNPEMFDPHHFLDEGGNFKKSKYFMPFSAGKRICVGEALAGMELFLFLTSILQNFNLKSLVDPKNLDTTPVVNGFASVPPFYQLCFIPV
Chain of CYP3A (P08684 2-503): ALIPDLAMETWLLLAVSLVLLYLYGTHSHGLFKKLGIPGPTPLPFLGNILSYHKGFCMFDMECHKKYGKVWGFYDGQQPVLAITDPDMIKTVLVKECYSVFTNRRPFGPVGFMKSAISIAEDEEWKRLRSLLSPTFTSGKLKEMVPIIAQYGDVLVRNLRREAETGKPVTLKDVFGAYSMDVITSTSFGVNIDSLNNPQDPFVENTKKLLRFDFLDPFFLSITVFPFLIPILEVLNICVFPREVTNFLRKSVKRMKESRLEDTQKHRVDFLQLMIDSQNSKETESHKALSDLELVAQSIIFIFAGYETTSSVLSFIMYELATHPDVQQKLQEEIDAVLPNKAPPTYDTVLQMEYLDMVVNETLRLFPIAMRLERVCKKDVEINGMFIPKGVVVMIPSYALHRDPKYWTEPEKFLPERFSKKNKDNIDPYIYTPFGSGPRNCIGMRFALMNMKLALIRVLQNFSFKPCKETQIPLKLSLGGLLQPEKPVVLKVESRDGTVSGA
T3 sequence (P10635 whole entry): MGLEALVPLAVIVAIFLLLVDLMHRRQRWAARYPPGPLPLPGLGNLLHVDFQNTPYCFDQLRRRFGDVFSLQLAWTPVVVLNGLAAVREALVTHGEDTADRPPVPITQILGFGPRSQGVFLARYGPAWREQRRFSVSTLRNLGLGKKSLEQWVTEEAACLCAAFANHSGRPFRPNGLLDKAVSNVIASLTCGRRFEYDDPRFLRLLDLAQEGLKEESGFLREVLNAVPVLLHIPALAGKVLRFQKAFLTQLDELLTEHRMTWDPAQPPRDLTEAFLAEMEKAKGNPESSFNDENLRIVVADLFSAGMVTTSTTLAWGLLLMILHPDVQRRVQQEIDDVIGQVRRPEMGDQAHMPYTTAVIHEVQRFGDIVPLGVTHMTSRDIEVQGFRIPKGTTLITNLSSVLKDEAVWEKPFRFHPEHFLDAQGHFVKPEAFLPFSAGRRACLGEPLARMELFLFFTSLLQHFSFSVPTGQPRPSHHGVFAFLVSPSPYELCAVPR

What is called IC50 is the concentration that inhibits the measured activity by half. One may read the half-life as the time needed for the level to fall by half in the phase considered. `Cc1nc2ccc(C(=O)N3CCC4(CC3)CC(=O)c3c(cnn3C(C)C)C4)cc2[nH]1` [Example 1, 1-isopropyl-1′-(2-methyl-1H-benzo[d]imidazole-5-carbonyl)-4,6-dihydrospiro[indazole-5,4′-piperidin]-7(1H)-one]: the IC50 in data set [1], in data set [2], in data set [3], in data set [4] and in data set [5] was greater than 30 µM throughout. This molecule gave a half-life in data set [6] of 10 to 13 h.

Regarding `CC(C)n1ncc2c1C(=O)CC1(CCN(C(=O)c3ccc4ccc(N)nc4c3)CC1)C2` [Example 3, 1′-(2-aminoquinoline-7-carbonyl)-1-isopropyl-4,6-dihydrospiro[indazole-5,4′-piperidin]-7(1H)-one], in data set [7], the “incorporation of de novo synthesized fatty acids in liver” value is given as “failed to inhibit” and the “incorporation of de novo synthesized fatty acids in skin” value is listed as “failed to inhibit”.
